From patent publication US9302999B2, “Substituted triazoles as herbicides” (E. I. DU PONT DE NEMOURS AND COMPANY, priority 2012, dated 2016)

What was measured:
Format in all cases: in vivo
[1] = system: cocklebur (common cocklebur, Xanthium strumarium); assay: Test F pre-/postemergence: cocklebur; conditions: Preemergence
Summary of the method: (§1)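 0–100 visual control scores, taken 14–21 d after application in the greenhouse. Preemergence treatment was made to silt loam soil at sowing. Postemergence sprays hit 1- to 4-leaf plants (2–18 cm) in peat/vermiculite mix. Surfactant-containing non-phytotoxic solvent served as the vehicle.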

[2] = system: morningglory (Ipomoea coccinea); assay: Test F pre-/postemergence: morningglory; conditions: Preemergence
Summary of the method: as §1

kochia (Kochia scoparia) = assay: Test F pre-/postemergence: kochia; conditions: Preemergence
Source text: Seeds of plant species selected from corn (Zea mays), soybean (Glycine max), velvetleaf (Abutilon theophrasti), lambsquarters (Chenopodium album), poinsettia, wild (wild poinsettia, Euphorbia heterophylla), pigweed, palmer (palmer pigweed, Amaranthus palmeri), waterhemp (common waterhemp, Amaranthus rudis), surinam grass (Brachiaria decumbens), crabgrass, Brazil (Brazilian crabgrass, Digitaria horizontalis), panicum, fall (fall panicum Panicum dichotomiflorum), crabgrass, large (large crabgrass, Digitaria sanguinalis), foxtail, giant (giant foxtail, Setaria faberii), foxtail, green (green foxtail Setaria viridis), goosegrass (Eleusine indica), ragweed (common ragweed, Ambrosia elatior), barnyardgrass (Echinochloa crus-galli), sandbur (southern sandbur, Cenchrus echinatus), arrowleaf sida (Sida rhombifolia), ryegrass, Italian (Italian ryegrass, Lolium multiflorum), dayflower, VA (Virginia (VA) dayflower, Commelina virginica), field bindweed (Convolvulus arvensis), cocklebur (common cocklebur, Xanthium strumarium), morningglory (Ipomoea coccinea), nightshade (eastern black nightshade, Solanum ptycanthum), kochia (Kochia scoparia), nutsedge, yellow (yellow nutsedge, Cyperus esculentus), johnsongrass (Sorghum halepense), smartweed (ladysthumb smartweed, Polygonum persicaria), and beggarticks (hairy beggarticks, Bidens pilosa), were planted into a silt loam soil and treated preemergence with test chemicals formulated in a non-phytotoxic solvent mixture which included a surfactant. At the same time, plants selected from these crop and weed species and also pigweed (Amaranthus retroflexus), waterhemp_RES1 (ALS/Triazine resistant common waterhemp, Amaranthus rudis) and waterhemp_RES2 (ALS/HPPD resistant common waterhemp, Amaranthus rudis) were planted in pots containing a planting medium comprising spaghnum peat moss, vermiculite, wetting agent and starter nutrients treated with postemergence applications of some of the test chemicals formulated in the same manner. Plants ranged in height from 2 to 18 cm for postemergence treatments (1- to 4-leaf stage).
Treated plants and controls were maintained in a greenhouse for 14 to 21 days, after which time all species were compared to controls and visually evaluated. Plant response ratings, summarized in Table E, are based on a scale of 0 to 100 where 0 is no effect and 100 is complete control. A dash (-) response means no test result.

[3] = system: foxtail, green (green foxtail, Setaria viridis); assay: Test D pre-/postemergence: foxtail, green
Summary of the method: (§2)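 Scores run from 0 (no effect) to 100 (complete control), assigned by visual comparison with controls after 14 to 21 days in a controlled environment. Both preemergence application to silt loam and postemergence application to 1- to 4-leaf plants were tested.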

[4] = system: oilseed rape (Brassica napus); assay: Test D pre-/postemergence: oilseed rape
Summary of the method: as §2

[5] = system: mustard, wild (wild mustard, Sinapis arvensis); assay: Test D pre-/postemergence: mustard, wild
Summary of the method: as §2

[6] = system: oat, wild (wild oat, Avena fatua); assay: Test D pre-/postemergence: oat, wild
Summary of the method: as §2

[7] = system: wheat, winter (winter wheat, Triticum aestivum); assay: Test D pre-/postemergence: wheat, winter
Summary of the method: as §2

[8] = system: crabgrass, Brazil (Brazilian crabgrass, Digitaria horizontalis); assay: Test F pre-/postemergence: crabgrass, Brazil; conditions: Preemergence
Summary of the method: as §1

[9] = 16 g ai/ha, scale 0 to 100, 0 no effect, 100 complete control
[10] = 31 g ai/ha, scale 0 to 100, 0 no effect, 100 complete control
[11] = Postemergence, 31 g ai/ha, scale 0 to 100 (0 no effect, 100 complete control)
[12] = Postemergence, 62 g ai/ha, scale 0 to 100 (0 no effect, 100 complete control)
[13] = Postemergence, 125 g ai/ha, scale 0 to 100, 0 no effect, 100 complete control
[14] = Postemergence, 16 g ai/ha, scale 0 to 100
[15] = Preemergence, 16 g ai/ha, scale 0 to 100, 0 no effect, 100 complete control
[16] = Preemergence, 31 g ai/ha, scale 0 to 100, 0 no effect, 100 complete control
[17] = Preemergence, 62 g ai/ha, scale 0 to 100
[18] = Preemergence, 125 g ai/ha, scale 0 to 100

**Q.** Which “Plant response rating, Cocklebur” value ([1]; 62 g ai/ha, scale 0 to 100) does the source give for `COc1nn(-c2cccc(F)c2)nc1Cc1ccnc(C(F)(F)F)c1` [Compound 139] here?
**A.** The value was 0.

**Q.** And the “Plant response rating, Cocklebur” value ([1]; 125 g ai/ha, scale 0 to 100)?
**A.** Its value is 0.

**Q.** What about the “Plant response rating, Morningglory” value [2, 9] of the same compound?
**A.** Its value is 0.

**Q.** And the “Plant response rating, Morningglory” value [2, 10]?
**A.** Its value is 0.

**Q.** What about the “Plant response rating, Morningglory” value ([2]; 125 g ai/ha, scale 0 to 100) of the same compound?
**A.** The value was 5.

**Q.** What about the “Plant response rating, Morningglory” value ([2]; 250 g ai/ha, scale 0 to 100) of the same compound?
**A.** Its value is 20.

**Q.** And the “Plant response rating, Kochia” value (kochia (Kochia scoparia); [9])?
**A.** Its value is 0.

**Q.** What about the “Plant response rating, Kochia” value (kochia (Kochia scoparia); [10]) of the same compound?
**A.** The value was 0.

**Q.** What about the “Plant response rating, Kochia” value (kochia (Kochia scoparia); 62 g ai/ha, scale 0 to 100) of the same compound?
**A.** The value was 35.

**Q.** What about the “Plant response rating, Kochia” value (kochia (Kochia scoparia); 125 g ai/ha, scale 0 to 100) of the same compound?
**A.** Its value is 90.

**Q.** And the “Plant response rating, Kochia” value (kochia (Kochia scoparia); 250 g ai/ha, scale 0 to 100)?
**A.** Its value is 98.

**Q.** Which results are given for `Cc1nn(-c2ccc(C(F)(F)F)c(F)c2)nc1Oc1ccnc(C(F)(F)F)c1` [Compound 148]?
**A.** Plant response rating: Foxtail, Green [3, 11]: 15; Plant response rating: Foxtail, Green [3, 12]: 50; Plant response rating: Foxtail, Green [3, 13]: 60; Plant response rating, Foxtail, Green [3, 14]: 15; Plant response rating, Foxtail, Green [3, 15]: 15; Plant response rating, Foxtail, Green [3, 16]: 50; Plant response rating, Foxtail, Green [3, 17]: 70; Plant response rating, Foxtail, Green [3, 18]: 100; Plant response rating: Oilseed Rape [4, 11]: 35; Plant response rating: Oilseed Rape [4, 12]: 80; Plant response rating: Oilseed Rape [4, 13]: 100; Plant response rating, Oilseed Rape [4, 14]: 30; Plant response rating, Oilseed Rape [4, 15]: 5; Plant response rating, Oilseed Rape [4, 16]: 0; Plant response rating, Oilseed Rape [4, 17]: 10; Plant response rating, Oilseed Rape [4, 18]: 20; Plant response rating: Mustard, Wild [5, 11]: 100; Plant response rating: Mustard, Wild [5, 12]: 100; Plant response rating: Mustard, Wild [5, 13]: 100; Plant response rating, Mustard, Wild [5, 14]: 55; Plant response rating, Mustard, Wild [5, 15]: 20; Plant response rating, Mustard, Wild [5, 16]: 15; Plant response rating, Mustard, Wild [5, 17]: 55; Plant response rating, Mustard, Wild [5, 18]: 95; Plant response rating: Oat, Wild [6, 11]: 15; Plant response rating: Oat, Wild [6, 12]: 30; Plant response rating: Oat, Wild [6, 13]: 55; Plant response rating, Oat, Wild [6, 14]: 5; Plant response rating, Oat, Wild [6, 15]: 5; Plant response rating, Oat, Wild [6, 16]: 20; Plant response rating, Oat, Wild [6, 17]: 30; Plant response rating, Oat, Wild [6, 18]: 65; Plant response rating: Wheat, Winter [7, 11]: 10; Plant response rating: Wheat, Winter [7, 12]: 15; Plant response rating: Wheat, Winter [7, 13]: 25; Plant response rating, Wheat, Winter [7, 14]: 10; Plant response rating, Wheat, Winter [7, 15]: 0; Plant response rating, Wheat, Winter [7, 16]: 5; Plant response rating, Wheat, Winter [7, 17]: 0; Plant response rating, Wheat, Winter [7, 18]: 10; Plant response rating, Crabgrass, Brazil [8, 9]: 100; Plant response rating, Crabgrass, Brazil [8, 10]: 100; Plant response rating, Crabgrass, Brazil ([8]; 62 g ai/ha, scale 0 to 100): 100; Plant response rating, Crabgrass, Brazil ([8]; 125 g ai/ha, scale 0 to 100): 100; Plant response rating, Crabgrass, Brazil ([8]; 250 g ai/ha, scale 0 to 100): 100; Plant response rating, Cocklebur [1, 10]: 0; Plant response rating, Cocklebur ([1]; 125 g ai/ha, scale 0 to 100): 0; Plant response rating, Morningglory [2, 9]: 0; Plant response rating, Morningglory [2, 10]: 30; Plant response rating, Morningglory ([2]; 125 g ai/ha, scale 0 to 100): 50; Plant response rating, Morningglory ([2]; 250 g ai/ha, scale 0 to 100): 70; Plant response rating, Kochia (kochia (Kochia scoparia); [9]): 0; Plant response rating, Kochia (kochia (Kochia scoparia); [10]): 90; Plant response rating, Kochia (kochia (Kochia scoparia); 62 g ai/ha, scale 0 to 100): 90; Plant response rating, Kochia (kochia (Kochia scoparia); 125 g ai/ha, scale 0 to 100): 95; Plant response rating, Kochia (kochia (Kochia scoparia); 250 g ai/ha, scale 0 to 100): 98

**Q.** What does the source list for `CCc1nn(-c2ccc(C(F)(F)F)cc2)nc1Cc1ccnc(C(F)(F)F)c1` [Compound 155]?
**A.** Plant response rating: Foxtail, Green [3, 11]: 15; Plant response rating: Foxtail, Green [3, 12]: 70; Plant response rating: Foxtail, Green [3, 13]: 80; Plant response rating, Foxtail, Green [3, 14]: 20; Plant response rating, Foxtail, Green [3, 15]: 20; Plant response rating, Foxtail, Green [3, 16]: 65; Plant response rating, Foxtail, Green [3, 17]: 85; Plant response rating, Foxtail, Green [3, 18]: 100; Plant response rating: Oilseed Rape [4, 11]: 100; Plant response rating: Oilseed Rape [4, 12]: 100; Plant response rating: Oilseed Rape [4, 13]: 100; Plant response rating, Oilseed Rape [4, 14]: 85; Plant response rating, Oilseed Rape [4, 15]: 0; Plant response rating, Oilseed Rape [4, 16]: 5; Plant response rating, Oilseed Rape [4, 17]: 100; Plant response rating, Oilseed Rape [4, 18]: 100; Plant response rating: Mustard, Wild [5, 11]: 100; Plant response rating: Mustard, Wild [5, 12]: 100; Plant response rating: Mustard, Wild [5, 13]: 100; Plant response rating, Mustard, Wild [5, 14]: 80; Plant response rating, Mustard, Wild [5, 15]: 55; Plant response rating, Mustard, Wild [5, 16]: 55; Plant response rating, Mustard, Wild [5, 17]: 100; Plant response rating, Mustard, Wild [5, 18]: 100; Plant response rating: Oat, Wild [6, 11]: 20; Plant response rating: Oat, Wild [6, 12]: 55; Plant response rating: Oat, Wild [6, 13]: 75; Plant response rating, Oat, Wild [6, 14]: 10; Plant response rating, Oat, Wild [6, 15]: 5; Plant response rating, Oat, Wild [6, 16]: 50; Plant response rating, Oat, Wild [6, 17]: 15; Plant response rating, Oat, Wild [6, 18]: 60; Plant response rating: Wheat, Winter [7, 11]: 10; Plant response rating: Wheat, Winter [7, 12]: 15; Plant response rating: Wheat, Winter [7, 13]: 25; Plant response rating, Wheat, Winter [7, 14]: 5; Plant response rating, Wheat, Winter [7, 15]: 0; Plant response rating, Wheat, Winter [7, 16]: 0; Plant response rating, Wheat, Winter [7, 17]: 5; Plant response rating, Wheat, Winter [7, 18]: 5; Plant response rating, Crabgrass, Brazil ([8]; 62 g ai/ha, scale 0 to 100): 100; Plant response rating, Crabgrass, Brazil ([8]; 125 g ai/ha, scale 0 to 100): 100; Plant response rating, Crabgrass, Brazil ([8]; 250 g ai/ha, scale 0 to 100): 100; Plant response rating, Cocklebur ([1]; 62 g ai/ha, scale 0 to 100): 0; Plant response rating, Cocklebur ([1]; 125 g ai/ha, scale 0 to 100): 40; Plant response rating, Cocklebur ([1]; 250 g ai/ha, scale 0 to 100): 40; Plant response rating, Kochia (kochia (Kochia scoparia); 62 g ai/ha, scale 0 to 100): 70; Plant response rating, Kochia (kochia (Kochia scoparia); 125 g ai/ha, scale 0 to 100): 98; Plant response rating, Kochia (kochia (Kochia scoparia); 250 g ai/ha, scale 0 to 100): 100
